Data taken from patent US11286236B2, “Compound, agent and composition for the suppression of cancer growth” (Vector Vitale IP LLC, priority 2018, dated 2022).
Counter-ions that a name gives are not always drawn.

System: Ehrlich ascites carcinoma
Experiment: In vivo antitumor activity against Ehrlich ascites carcinoma
Parameters: species or system mouse
Procedure: Outbred mice were administered Ehrlich ascites carcinoma cells (EAC) intraperitoneally (IP) at a dose of 2.5×10^5 cells in 0.25 ml of normal saline solution. The compounds under study, 1)^85RbeE2, was dissolved in deuterium-depleted water and 2) Cisplatin (Teva, the Netherlands), was dissolved in normal saline solution. The drugs were administered starting from the first day after mice were inoculated with tumor cells, using a microinjection syringe, at the following doses: 1)^85Rbe-E2 at a dose of 750 μg/mouse (weighing 20 g) in a volume of 0.3 ml as 3 IP injections (1 injection—250 μg/mouse) on the 1st, 4th and 7th day of the experiment; 2) Cisplatin at a dose of 4.5 mg/kg or 1.5 mg/kg as 3 IP injections on the 2nd, 5th and 8th day of the experiment. The dynamics of tumor growth in the experimental animals was observed (based on the volume of ascites in the peritoneal cavity) after the tumor cell inoculation and for 31 days of the experiment. On the 15th and 22nd day after IP administration of tumor cells, all the fluid accumulated in each animal's abdomen was extracted and the total number of live/dead cells in each mouse was determined. In addition, some mice were used to assess a survival rate of animals in the experiment.
Laboratory animals. 84 outbred female 10 to 12-week old mice weighing 22-26 g were used in the experimental study. The animals were obtained from the animal vivarium at R.E. Kavetsky IEPOR NASU. […] The animals were maintained in plastic cages, under natural light-dark cycles, fed standard food and allowed free access to food and tap water.
Tumor model. Ascites strain of Ehrlich ascites carcinoma maintained on outbred mice obtained from the cell and tissue line bank at R.E. Kavetsky IEPOR NASU was used in the experiment. To prepare the strain for injection, tumor cells derived from ascitic fluid were placed in normal saline solution and cellularity of the suspension was assessed in a hemocytometer and adjusted to a concentration of 1·10^6 cells/ml with saline solution. The tumor cells were inoculated by injecting 250 mcl of cell suspension from the tumor (0.25×10^6 cells/mouse) into the peritoneal cavity of laboratory animals.
The drugs were administered IP every other day, using a microinjection syringe, at doses specified above as a series of 3 injections of each compound according to the following scheme: ^85Rbe-E2 at a dose of 250 μg/mouse weighing 20 g+CP at a dose of […] 24 hours later (for groups (EAC+CP(4.5)) and (EAC+^85Rbe-E2+CP(4.5)) or […] (for groups (EAC+CP(1.5)) and (EAC+^85Rbe-E2+CP(1.5)) in a volume of 0.25 ml of saline solution (6 injections in total during 8 days).
The tumor growth dynamics in the laboratory animals was observed by daily control of the volume of ascitic fluid in the abdominal cavity of mice starting from the tumor inoculation and for 31 days of the experiment. The dynamics of ascites growth both in control and experimental groups was assessed visually using a 10-point scale, where 0 points were the absence of tumor growth and 10 points were the maximum increase in the size of the abdomen of the mouse with ascites (one point was 0.6 cm of the mean diameter of the mouse abdomen filled with the fluid).
Furthermore, on the 15th and 22nd day after intraperitoneal injection of tumor cells, all ascitic fluid was removed from the abdomen in 2 or 3 animals from each group by washing their peritoneal cavity with saline solution, and live/dead EAC cells were counted in each mouse using the traditional vital dye trypan blue (HyClon, USA) and a hemocytometer.
X=((a)/80)×10^6, where X is the number of cells in 1 ml and a is the number of cells counted in 5 large diagonal squares of the hemocytometer.
7 or 8 mice from each group were used to assess their survival in the experiment. The total lifespan observation time was 31 days from the moment of inoculation of tumor cells.
Statistical data processing. […]

[1] = 85Rbe-E2 750 μg/mouse IP total, alone, 14 mice per group
[2] = Day 15, 85Rbe-E2 750 μg/mouse IP total, alone
[3] = Day 22, 85Rbe-E2 750 μg/mouse IP total, alone
[4] = day 15, 85Rbe-E2 750 μg/mouse IP total, alone
[5] = day 17, 85Rbe-E2 750 μg/mouse IP total, alone
[6] = day 22, 85Rbe-E2 750 μg/mouse IP total, alone
[7] = day 24, 85Rbe-E2 750 μg/mouse IP total, alone
[8] = day 27, 85Rbe-E2 750 μg/mouse IP total, alone
[9] = day 29, 85Rbe-E2 750 μg/mouse IP total, alone
[10] = day 31, 85Rbe-E2 750 μg/mouse IP total, alone

Structure (SMILES): Cc1ccc(S(=O)(=O)Nc2ccccc2NC(=O)c2ccccc2)cc1 [^85Rbe − E2, ^85Rb-enriched rubidium salt of N-benzoyl-N′-(4-toluenesulfonyl)-o-phenylenediamine]
- Animals without tumor, % (85Rbe-E2 750 μg/mouse IP total, alone): 0%
- Number of animals in the group with tumor [1]: 14
- Number of animals in the group without tumor [1]: 0
- Last day with statistically significant inhibition of EAC growth vs control (85Rbe-E2 alone): 15 days
- Suppression of carcinoma growth vs control, average (85Rbe-E2 alone, by the 15th day after inoculation): 18%
- Number of dead cells/mouse, % [2]: 4.3 ± 1.5%
- Number of live cells/mouse, ×10^6 (M ± m) [2]: 1917 ± 408 ×10^6
- Volume of ascites [2]: 6.5 ± 2.9 mL
- Number of dead cells/mouse, % [3]: 15.4 ± 3.6%
- Number of live cells/mouse, ×10^6 (M ± m) [3]: 2062 ± 438 ×10^6
- Volume of ascites [3]: 16.4 ± 4.8 mL
- Survival, percent of mice (day 0, 85Rbe-E2 750 μg/mouse IP total, alone): 100%
- Size of mouse abdomen, points (day 9, 85Rbe-E2 750 μg/mouse IP total, alone): 4.4 ± 0.2 points
- Size of mouse abdomen, points (day 13, 85Rbe-E2 750 μg/mouse IP total, alone): 6 ± 0.3 points
- Size of mouse abdomen, points [4]: 6.5 ± 0.3 points
- Survival, percent of mice [4]: 100%
- Size of mouse abdomen, points [5]: 8 ± 0.6 points
- Survival, percent of mice [5]: 85.7%
- Survival, percent of mice (day 19, 85Rbe-E2 750 μg/mouse IP total, alone): 85.7%
- Size of mouse abdomen, points (day 20, 85Rbe-E2 750 μg/mouse IP total, alone): 9 ± 0.4 points
- Size of mouse abdomen, points [6]: 9.5 ± 0.4 points
- Survival, percent of mice [6]: 85.7%
- Size of mouse abdomen, points [7]: 10 points
- Survival, percent of mice [7]: 85.7%
- Survival, percent of mice (day 25, 85Rbe-E2 750 μg/mouse IP total, alone): 71%
- Survival, percent of mice (day 26, 85Rbe-E2 750 μg/mouse IP total, alone): 71%
- Size of mouse abdomen, points [8]: 10 points
- Survival, percent of mice [8]: 57%
- Survival, percent of mice (day 28, 85Rbe-E2 750 μg/mouse IP total, alone): 43%
- Size of mouse abdomen, points [9]: 10 points
- Survival, percent of mice [9]: 29%
- Size of mouse abdomen, points [10]: 10 points
- Survival, percent of mice [10]: 14%
- Effect on the survival rate of mice (series of IP injections of 85Rbe-E2 alone): did not have a significant effect
